Data: article PMC9448382, “Fluorosulfate-containing pyrazole heterocycles as selective BuChE inhibitors: structure-activity relationship and biological evaluation for the treatment of Alzheimer’s disease” (Journal of Enzyme Inhibition and Medicinal Chemistry, 2022)

How the values were obtained:
AChE from electric eel = target: T1, AChE from electric eel (Electrophorus electricus, UniProt O42275); test: EeAChE inhibition assay (Ellman's method); type: biochemical; details: read-out: AChE % inhibition at 20 µM, 20 µM, na = no inhibitory activity at 20 µM
T1 construct: AChE from electric eel (C3389-500UN; Sigma); purchased Sigma C3389-500UN
Protocol: (§1) According to Ellman's method, assays were carried out on AChE from electric eel (C3389-500UN; Sigma) and BuChE from horse serum (C4290-1KU; Sigma). On a final volume of 500 μL, the experiment was carried out in 48-well plates. EeAChE or eqBuChE, 0.036 U/mL, and 0.1 M pH 8 phosphate buffer were added to each well. At 37 °C, they were pre-incubated for 20 min at various chemical concentrations. […] Along with the enzymatic breakdown of ACh or BuCh, the DTNB creates the yellow anion 5-thio-2-nitrobenzoic acid. In a Biotek Synergy HTX Multi-Mode reader, changes in absorbance were detected at 410 nm. Inhibition curves were used to calculate the IC50 values (log inhibitor concentration vs percent of inhibition). The same conditions were used in a control experiment without the inhibitor, and the blank comprised buffer, DMSO, DTNB, and substrate.
(§2) The IC50 values were calculated by SPSS 17.0.

BuChE from horse serum = target: T2, BuChE from horse serum (Equus caballus, UniProt P81908); test: biochemical; type: biochemical
T2 construct: BuChE from horse serum (C4290-1KU; Sigma); purchased Sigma C4290-1KU; host or cells: horse serum
Protocol: as §1, §2

PC12 cells = test: Neuroprotection assay against H2O2-induced PC12 cell injury; type: cell-based; details: Rattus norvegicus
Protocol: PC12 cells were distributed at a density of 1 × 10^4 cells per well into 96-well microtiter plates. At time zero, cells were treated with a range of compounds K3 concentrations (1‒25 µM) and kept for 3 h after being incubated overnight. The media were then changed with new media containing the medication as well as a cytotoxic stimulus in the form of 100 µM H2O2, which was left for another 24 h. The MTT assay was used to determine cell viability after 24 h. In the cells, 20 µL of 0.5 mg/mL MTT reagent was applied and incubated for 4 h. The cell culture was removed after 4 h, and 150 µL DMSO was added to dissolve the formazan. The optical density was measured at 492 nm (OD492) on the Biotek Synergy HTX Multi-Mode reader. Results were adjusted considering OD measured in the blank.

Aβ1–42 = test: Brain Aβ1–42 total amount by mouse ELISA kit; type: in vivo; details: mice, Aβ1–42 icv model, K3 10 mg/kg po, donepezil 15 mg/kg po
Protocol: In the Aβ1–42 oligomeric damage experiment, all mice were sacrificed after the behavioural research was completed, and the brains were collected to assess the total content of Aβ1–42 using a mouse ELISA kit. Each brain tissue sample was thoroughly homogenised in a grinder with 10 times PBS (pH = 7.4 ± 0.1) before being centrifuged for 5 min at 5000×g. The supernatant was separated for use. The detection technique followed the directions exactly, and the standard curve was created. Brain tissue Aβ1–42 content was calculated according to the linear regression equation. All values were expressed as mean ± SEM using GraphPadPrism8.0 software.

T2 sequence (P81908 whole entry): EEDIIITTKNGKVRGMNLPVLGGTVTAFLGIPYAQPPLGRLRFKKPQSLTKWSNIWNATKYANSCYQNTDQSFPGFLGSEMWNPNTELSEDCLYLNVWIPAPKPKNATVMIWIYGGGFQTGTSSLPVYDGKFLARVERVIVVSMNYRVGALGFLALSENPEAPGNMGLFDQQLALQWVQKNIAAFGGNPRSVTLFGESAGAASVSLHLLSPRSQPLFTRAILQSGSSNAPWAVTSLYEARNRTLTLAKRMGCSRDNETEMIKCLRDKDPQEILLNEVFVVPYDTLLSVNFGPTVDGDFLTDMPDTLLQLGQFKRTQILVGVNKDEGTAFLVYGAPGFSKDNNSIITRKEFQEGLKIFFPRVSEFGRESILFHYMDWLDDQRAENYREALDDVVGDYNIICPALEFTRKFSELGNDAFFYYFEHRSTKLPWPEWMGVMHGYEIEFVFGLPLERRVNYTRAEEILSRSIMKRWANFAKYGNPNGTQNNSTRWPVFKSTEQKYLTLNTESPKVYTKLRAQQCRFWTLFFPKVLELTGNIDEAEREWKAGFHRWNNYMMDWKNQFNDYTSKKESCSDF
T1 sequence (O42275 24-633): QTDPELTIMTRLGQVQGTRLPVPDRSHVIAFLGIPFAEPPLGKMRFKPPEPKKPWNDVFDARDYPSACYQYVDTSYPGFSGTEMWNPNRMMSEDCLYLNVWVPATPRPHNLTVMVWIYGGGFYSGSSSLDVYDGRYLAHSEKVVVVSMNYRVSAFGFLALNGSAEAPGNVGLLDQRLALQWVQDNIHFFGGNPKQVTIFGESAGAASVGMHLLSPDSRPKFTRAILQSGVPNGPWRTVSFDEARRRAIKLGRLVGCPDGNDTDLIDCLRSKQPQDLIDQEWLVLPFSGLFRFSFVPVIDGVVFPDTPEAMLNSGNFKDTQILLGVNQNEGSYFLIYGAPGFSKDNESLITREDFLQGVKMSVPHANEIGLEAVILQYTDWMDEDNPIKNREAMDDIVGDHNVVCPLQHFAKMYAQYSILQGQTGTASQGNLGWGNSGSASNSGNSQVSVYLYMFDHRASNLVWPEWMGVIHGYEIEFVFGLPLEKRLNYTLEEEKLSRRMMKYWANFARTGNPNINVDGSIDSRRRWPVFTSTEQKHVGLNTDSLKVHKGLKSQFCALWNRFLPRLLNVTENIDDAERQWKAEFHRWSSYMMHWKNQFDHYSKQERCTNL

O=S(=O)(F)Oc1cc(-c2ccccc2)nn1-c1ccc(Cl)cc1 [Compound K3]
inhibition at 20 µM (AChE from electric eel): 26.3 ± 1.4%
IC50 (BuChE from horse serum): 790 ± 320 nM
viability at 5 µM (PC12 cells; PC-12, 100 µM H2O2, compound 5 µM): 55.9%
viability at 25 µM (PC12 cells; PC-12, 100 µM H2O2, compound 25 µM): 69.3%
decrease of Aβ1–42 peptides in brain (Aβ1–42): 17.6%
